From US9815835B2, “Substituted polycyclic carbamolypyridone derivative” (priority 2009, dated 2017)

Tests used:
[1] = target: cap-dependent endonuclease (RNP fraction containing PB1•PB2•PA complex) (Influenza A virus, UniProt P15659); assay: biochemical; settings: RNP from A/WSN/33 virus, capped Cy3/BHQ2 30mer RNA substrate, 60 minutes at room temperature; read-out: CEN IC50
[2] = test system: influenza virus; assay: microbe, parasite or virus in culture; type: cell-based, influenza virus (MDBK or MDCK cells); settings: unidentified influenza virus, 72 h, read-out: CPE EC50, effective concentration to achieve 50% CPE inhibition, 3 days incubation, WST-8

Compound: COCCN1C[C@H](C(c2ccccc2)c2ccccc2)n2cc(C(=O)O)c(=O)c(O)c2C1=O [Example 2]
- IC50 [1]: 48 nM
- EC50 [2]: 293 nM

Compound: CCN1C[C@H](C(c2ccccc2)c2ccccc2)n2cc(C(=O)O)c(=O)c(O)c2C1=O [Example 14]
- IC50 [1]: 43 nM
- EC50 [2]: 313 nM

Compound: O=C(O)c1cn2c(c(O)c1=O)C(=O)N(CC1CCCCO1)C[C@@H]2C(c1ccccc1)c1ccccc1 (stereo partly drawn) [Example 26]
- IC50 [1]: 108 nM
- EC50 [2]: 547 nM

Compound: O=C1c2c(O)c(=O)ccn2[C@@H](C(c2ccccc2)c2ccccc2)CN1Cc1ccccc1 [Example 37]
- IC50 [1]: 101 nM
- EC50 [2]: 318 nM

Compound: COCCN1C[C@H](C(c2ccccc2)c2ccccc2)n2cc(CO)c(=O)c(O)c2C1=O [Example 48]
- IC50 [1]: 87 nM

Compound: COCCN1C[C@H](C(c2ccccc2)c2ccccc2)n2cc(N)c(=O)c(O)c2C1=O [Example 56]
- IC50 [1]: 358 nM

Compound: COCCN1C[C@H](C(c2ccccc2)c2ccccc2)n2cc(OC)c(=O)c(O)c2C1=O [Example 62]
- IC50 [1]: 110 nM

Compound: COCCN1CN(C(c2ccccc2)c2ccccc2)n2cc(C(=O)O)c(=O)c(O)c2C1=O [Example 94]
- IC50 [1]: 96 nM

Compound: COCCN1CN(Cc2ccccc2-c2ccccc2)n2ccc(=O)c(O)c2C1=O [Example 99]
- IC50 [1]: 341 nM

Compound: O=C1c2c(O)c(=O)ccn2N(C2c3ccccc3CCc3ccccc32)CN1C1CC1 [Example 108]
- IC50 [1]: 37 nM
- EC50 [2]: 19 nM

Compound: CN(CCN1CN(C(c2ccccc2)c2ccccc2)n2ccc(=O)c(O)c2C1=O)S(=O)(=O)c1ccccc1 [Example 138]
- IC50 [1]: 166 nM

Compound: CN(CCN1CN(C(c2ccccc2)c2ccccc2)n2ccc(=O)c(O)c2C1=O)S(C)(=O)=O [Example 139]
- IC50 [1]: 189 nM
- EC50 [2]: 741 nM

Compound: O=C1c2c(O)c(=O)ccn2N(C(c2ccccc2)c2ccccc2)CN1CCNS(=O)(=O)c1ccccc1 [Example 143]
- IC50 [1]: 224 nM
- EC50 [2]: 333 nM

Compound: O=C(NCCN1CN(C(c2ccccc2)c2ccccc2)n2ccc(=O)c(O)c2C1=O)c1ccccc1 [Example 150]
- IC50 [1]: 193 nM

Compound: O=C1c2c(O)c(=O)ccn2C(C(c2ccccc2)c2ccccc2)N2CCCCN12 (stereo not drawn) [Example 178]
- IC50 [1]: 61 nM
- EC50 [2]: 75 nM

Compound: O=C(O)c1cn2c(c(O)c1=O)C(=O)N(CCOc1ccc(F)cc1)C[C@@H]2C(c1ccccc1)c1ccccc1 [Example 183]
- IC50 [1]: 74 nM
- EC50 [2]: 2370 nM

Compound: O=C(O)c1cn2c(c(O)c1=O)C(=O)N(CC(F)(F)F)C[C@@H]2C(c1ccccc1)c1ccccc1 [Example 185]
- IC50 [1]: 132 nM
- EC50 [2]: 1920 nM

Compound: O=C1c2c(O)c(=O)ccn2N(Cc2csc3ccc(Cl)cc23)CN1Cc1ccc(F)cc1 [Example 191]
- IC50 [1]: 238 nM
- EC50 [2]: 2820 nM

Compound: CC(C)N1CN(Cc2cccc3ccsc23)n2ccc(=O)c(O)c2C1=O [Example 204]
- IC50 [1]: 299 nM
- EC50 [2]: 2360 nM

Compound: O=C1c2c(O)c(=O)ccn2N(C(c2ccccc2)c2ccccc2)CN1C1CCOC1 (stereo not drawn) [Example 224]
- IC50 [1]: 276 nM
- EC50 [2]: 119 nM

Compound: CN1CCC(N2CN(C(c3ccccc3)c3ccccc3)n3ccc(=O)c(O)c3C2=O)CC1 [Example 225]
- IC50 [1]: 283 nM
- EC50 [2]: 663 nM

Compound: CCC(COC)N1CN(C(c2ccccc2)c2ccccc2)n2ccc(=O)c(O)c2C1=O (stereo not drawn) [Example 228]
- IC50 [1]: 243 nM
- EC50 [2]: 141 nM

Compound: CCOC(=O)CC(C)N1CN(C(c2ccccc2)c2ccccc2)n2ccc(=O)c(O)c2C1=O (stereo not drawn) [Example 230]
- IC50 [1]: 282 nM
- EC50 [2]: 525 nM

Compound: CNC(=O)C(C)N1CN(C(c2ccccc2)c2ccccc2)n2ccc(=O)c(O)c2C1=O (stereo not drawn) [Example 233]
- IC50 [1]: 228 nM
- EC50 [2]: 2240 nM

Compound: CC(CC(=O)Nc1ccccc1)N1CN(C(c2ccccc2)c2ccccc2)n2ccc(=O)c(O)c2C1=O (stereo not drawn) [Example 238]
- IC50 [1]: 101 nM
- EC50 [2]: 440 nM

Compound: CC(C)N1CN(C(c2ccccc2Cl)c2ccccc2Cl)n2ccc(=O)c(O)c2C1=O [Example 240]
- IC50 [1]: 37 nM
- EC50 [2]: 48 nM

Compound: CC(N1CN(C(c2ccccc2)c2cccc(Cl)c2)n2ccc(=O)c(O)c2C1=O)C(F)(F)F (stereo not drawn) [Example 241]
- IC50 [1]: 197 nM
- EC50 [2]: 63 nM

Compound: CC(C)N1CN(C(c2cccs2)c2cccs2)n2ccc(=O)c(O)c2C1=O [Example 244]
- IC50 [1]: 249 nM
- EC50 [2]: 108 nM

Compound: CC(C)N1CN(C2c3ccc(Cl)cc3CCc3cc(Cl)ccc32)n2ccc(=O)c(O)c2C1=O [Example 246]
- IC50 [1]: 82 nM
- EC50 [2]: 26 nM

Compound: CN1CC[C@H](N2CN(C3c4ccccc4CCc4ccccc43)n3ccc(=O)c(O)c3C2=O)C1 [Example 247]
- IC50 [1]: 282 nM
- EC50 [2]: 2260 nM

Compound: CC(C)CN1CC(N2CN(C3c4ccccc4CCc4ccccc43)n3ccc(=O)c(O)c3C2=O)C1 [Example 248]
- IC50 [1]: 103 nM
- EC50 [2]: 489 nM

Compound: CC(C)N1CC(N2CN(C3c4ccccc4CCc4ccccc43)n3ccc(=O)c(O)c3C2=O)C1 [Example 249]
- IC50 [1]: 151 nM
- EC50 [2]: 1890 nM

Compound: CN1CC[C@@H](N2CN(C3c4ccccc4CCc4ccccc43)n3ccc(=O)c(O)c3C2=O)C1 [Example 250]
- IC50 [1]: 113 nM
- EC50 [2]: 476 nM

Compound: CS(=O)(=O)N1CC[C@@H](N2CN(C3c4ccccc4CCc4ccccc43)n3ccc(=O)c(O)c3C2=O)C1 [Example 251]
- IC50 [1]: 58 nM
- EC50 [2]: 157 nM

Compound: CC(C)N1CC[C@@H](N2CN(C3c4ccccc4CCc4ccccc43)n3ccc(=O)c(O)c3C2=O)C1 [Example 252]
- IC50 [1]: 107 nM
- EC50 [2]: 454 nM

Compound: CN1CCC(N2CN(C3c4ccccc4CCc4ccccc43)n3ccc(=O)c(O)c3C2=O)CC1 [Example 253]
- IC50 [1]: 235 nM
- EC50 [2]: 280 nM

Compound: O=C1c2c(O)c(=O)ccn2N(C2c3ccccc3CCc3ccccc32)CN1[C@@H]1CCN(CCO)C1 [Example 254]
- IC50 [1]: 135 nM
- EC50 [2]: 564 nM

Compound: Cc1cc(CN2CN(C3c4ccccc4CCc4ccccc43)n3ccc(=O)c(O)c3C2=O)no1 [Example 255]
- IC50 [1]: 52 nM
- EC50 [2]: 319 nM

Compound: O=C1c2c(O)c(=O)ccn2N(C2c3ccccc3CCc3ccccc32)CN1CCCF [Example 257]
- IC50 [1]: 41 nM
- EC50 [2]: 55 nM

Compound: O=C1c2c(O)c(=O)ccn2N(C2c3ccccc3CCc3ccccc32)CN1CC(F)F [Example 259]
- IC50 [1]: 66 nM
- EC50 [2]: 26 nM

Compound: CCC(COC)N1CN(C2c3ccccc3CCc3ccccc32)n2ccc(=O)c(O)c2C1=O (stereo not drawn) [Example 260]
- IC50 [1]: 91 nM
- EC50 [2]: 65 nM

Compound: O=C1c2c(O)c(=O)ccn2N(C2c3ccccc3CCc3ccccc32)CN1Cc1ccccn1 [Example 264]
- IC50 [1]: 64 nM
- EC50 [2]: 128 nM

Compound: CCN1CN(C2c3ccccc3CCc3ccccc32)n2ccc(=O)c(O)c2C1=O [Example 266]
- IC50 [1]: 43 nM
- EC50 [2]: 85 nM

Compound: CCOCCN1CN(C2c3ccccc3CCc3ccccc32)n2ccc(=O)c(O)c2C1=O [Example 268]
- IC50 [1]: 18 nM
- EC50 [2]: 74 nM

Compound: COCC(COC)N1CN(C2c3ccccc3CCc3ccccc32)n2ccc(=O)c(O)c2C1=O [Example 272]
- IC50 [1]: 82 nM

Compound: O=C1c2c(O)c(=O)ccn2N(C2c3ccccc3CSc3ccccc32)CN1C1CCC(F)(F)CC1 (stereo not drawn) [Example 313]
- IC50 [1]: 189 nM

Compound: COCCN1CN(C2c3ccccc3CSc3c(F)cccc32)n2ccc(=O)c(O)c2C1=O (stereo not drawn) [Example 336]
- IC50 [1]: 51 nM

Compound: COCC(COC)N1CN(C2c3ccccc3CSc3c(F)cccc32)n2ccc(=O)c(O)c2C1=O (stereo not drawn) [Example 339]
- IC50 [1]: 183 nM

Compound: CN1CN(C2c3ccccc3CSc3cc(Cl)ccc32)n2ccc(=O)c(O)c2C1=O (stereo not drawn) [Example 348]
- IC50 [1]: 54 nM

Compound: CC(C)N1CN(C2c3ccccc3CSc3cc(F)ccc32)n2ccc(=O)c(O)c2C1=O (stereo not drawn) [Example 352]
- IC50 [1]: 67 nM

Compound: Cc1cccc2c1SCc1ccccc1C2N1CN(C(C)C)C(=O)c2c(O)c(=O)ccn21 (stereo not drawn) [Example 356]
- IC50 [1]: 66 nM

Compound: COCCN1CN(C2c3ccccc3COc3c(Cl)cccc32)n2ccc(=O)c(O)c2C1=O (stereo not drawn) [Example 396]
- IC50 [1]: 56 nM

Compound: C[C@@H](N1CN([C@@H]2c3ccccc3SCc3c(Cl)cccc32)n2ccc(=O)c(O)c2C1=O)C(F)(F)F [Example 417]
- IC50 [1]: 30 nM

Compound: C[C@@H](N1CN([C@H]2c3ccc(F)cc3CSc3ccccc32)n2ccc(=O)c(O)c2C1=O)C(F)(F)F [Example 454]
- IC50 [1]: 12 nM

Compound: C[C@@H](N1CN([C@@H]2c3ccccc3SCc3c(Br)cccc32)n2ccc(=O)c(O)c2C1=O)C(F)(F)F [Example 463]
- IC50 [1]: 12 nM

Compound: C[C@@H](N1CN([C@H]2c3cccc(F)c3CSc3c(F)cccc32)n2ccc(=O)c(O)c2C1=O)C(F)(F)F [Example 469]
- IC50 [1]: 16 nM

Compound: C[C@@H](N1CN([C@H]2c3ccc(F)cc3CSc3c(F)cccc32)n2ccc(=O)c(O)c2C1=O)C(F)(F)F [Example 470]
- IC50 [1]: 8 nM

Compound: CC(=O)N(C)CC1N(C(C)C)C(=O)c2c(O)c(=O)ccn2N1C1c2ccccc2CCc2ccccc21 (stereo not drawn) [Example 525]
- IC50 [1]: 141 nM

Compound: COCCCC1N(C(C)C)C(=O)c2c(O)c(=O)ccn2N1C1c2ccc(F)cc2CCc2cc(F)ccc21 (stereo not drawn) [Example 526]
- EC50 [2]: 19 nM

Compound: CC(C)N1C(=O)c2c(O)c(=O)ccn2N(C2c3ccccc3CCc3ccccc32)C1CCN (stereo not drawn) [Example 533]
- EC50 [2]: 391 nM

Compound: CC(C)N1C(=O)c2c(O)c(=O)ccn2N(C2c3ccccc3CCc3ccccc32)C1CCCN (stereo not drawn) [Example 534]
- EC50 [2]: 1200 nM

Compound: CC(C)N1C(=O)c2c(O)c(=O)ccn2N(C2c3ccccc3CCc3ccccc32)C1CCN(C)C (stereo not drawn) [Example 537]
- EC50 [2]: 22 nM

Compound: CCN(CC)CC1N(CCO)C(=O)c2c(O)c(=O)ccn2N1C1c2ccccc2CCc2ccccc21 (stereo not drawn) [Example 550]
- EC50 [2]: 42 nM

Compound: CN(C)CC1N(CCO)C(=O)c2c(O)c(=O)ccn2N1C1c2ccccc2CCc2ccccc21 (stereo not drawn) [Example 551]
- EC50 [2]: 107 nM

Compound: CC(C)C1N(CCO)C(=O)c2c(O)c(=O)ccn2N1C1c2ccccc2CCc2ccccc21 (stereo not drawn) [Example 553]
- IC50 [1]: 28 nM

Compound: COCCN1C(=O)c2c(O)c(=O)c(C(=O)O)cn2N(C2c3ccccc3CCc3ccccc32)C1CCSC (stereo not drawn) [Example 556]
- EC50 [2]: 412 nM

Compound: COCCN1C[C@H](C(c2ccccc2)c2ccccc2)n2cc(Cl)c(=O)c(O)c2C1=O [Example 558]
- EC50 [2]: 541 nM

Compound: N#Cc1ccccc1N1CC(C2c3ccccc3CCc3ccccc32)n2ccc(=O)c(O)c2C1=O (stereo not drawn) [Example 568]
- EC50 [2]: 2810 nM
